Measured values from PubChem BioAssay AID2060894 (Molecular Pharmacology Branch, DTP, NCI, 2025).
Where “and” joins values, the source holds several entries; their conditions need not be identical. Equal entries are not always repeated.

System: K12877-001-R-J1-PDC complex spheroid viability
Test: Anticancer human tumor K12877-001-R-J1-PDC patient-derived lung adenocarcinoma cell line growth inhibition [RAS]
Settings: for viability, T/C: stronger effect = lower value
Procedure, shortened: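 Tumour cells grown as complex spheroids with HUVEC endothelial cells and mesenchymal stem cells, treated with RAS pathway inhibitor combinations. Each agent spans half-log steps from near clinical Cmax, or 10 microM where Cmax is unknown.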

[1] = curve of first compound, second compound 0.0316 µM
[2] = curve of first compound, second compound 0.1 µM
[3] = curve of first compound, second compound 0.316 µM
[4] = curve of first compound, second compound 1 µM
[5] = second compound 0.0316 µM, first compound 0.0316 µM
[6] = second compound 0.0316 µM, first compound 0.1 µM
[7] = second compound 0.1 µM, first compound 0.0316 µM
[8] = second compound 0.1 µM, first compound 0.1 µM
[9] = second compound 0.316 µM, first compound 0.0316 µM
[10] = second compound 0.316 µM, first compound 0.1 µM
[11] = second compound 1 µM, first compound 0.0316 µM
[12] = second compound 1 µM, first compound 0.1 µM
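Further: spheroids exposed to agents for one week before readout.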
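Wherever viability, T/C is given: tumour cells co-cultured with HUVEC and mesenchymal stem cells in spheroids.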

CC(C)n1nc(-c2ccc3oc(N)nc3c2)c2c(N)ncnc21 + C=CC(=O)N1CCN(c2nc(OCC3CCCN3C)nc3c(F)c(-c4nc(N)cc(C)c4C(F)(F)F)c(Cl)cc23)C(C)C1
IC50 (curve of first compound, second compound 0.00316 µM): 20.1 nM | IC50 (curve of first compound, second compound 0.01 µM): 20.4 nM | IC50 [1]: 17.4 nM | IC50 [2]: 15.4 nM | IC50 [3]: 14.2 nM | IC50 [4]: 16.4 nM | viability, T/C (second compound 0.00316 µM, first compound 0.000316 µM): 97.8% | viability, T/C (second compound 0.00316 µM, first compound 0.001 µM): 98.3% | viability, T/C (second compound 0.00316 µM, first compound 0.00316 µM): 90.6% | viability, T/C (second compound 0.00316 µM, first compound 0.01 µM): 73.3% | viability, T/C (second compound 0.00316 µM, first compound 0.0316 µM): 34.9% | viability, T/C (second compound 0.00316 µM, first compound 0.1 µM): 17.7% | viability, T/C (second compound 0.01 µM, first compound 0.000316 µM): 88.9% | viability, T/C (second compound 0.01 µM, first compound 0.001 µM): 89.2% | viability, T/C (second compound 0.01 µM, first compound 0.00316 µM): 81.8% | viability, T/C (second compound 0.01 µM, first compound 0.01 µM): 79.3% | viability, T/C (second compound 0.01 µM, first compound 0.0316 µM): 32.1% | viability, T/C (second compound 0.01 µM, first compound 0.1 µM): 15.2% | viability, T/C (second compound 0.0316 µM, first compound 0.000316 µM): 83.8% | viability, T/C (second compound 0.0316 µM, first compound 0.001 µM): 74.4% | viability, T/C (second compound 0.0316 µM, first compound 0.00316 µM): 78.4% | viability, T/C (second compound 0.0316 µM, first compound 0.01 µM): 71.4% | viability, T/C [5]: 27.1% | viability, T/C [6]: 14.4% | viability, T/C (second compound 0.1 µM, first compound 0.000316 µM): 75.6% | viability, T/C (second compound 0.1 µM, first compound 0.001 µM): 78.5% | viability, T/C (second compound 0.1 µM, first compound 0.00316 µM): 73.9% | viability, T/C (second compound 0.1 µM, first compound 0.01 µM): 65.5% | viability, T/C [7]: 24.7% | viability, T/C [8]: 14.5% | viability, T/C (second compound 0.316 µM, first compound 0.000316 µM): 82.9% | viability, T/C (second compound 0.316 µM, first compound 0.001 µM): 70% | viability, T/C (second compound 0.316 µM, first compound 0.00316 µM): 70.9% | viability, T/C (second compound 0.316 µM, first compound 0.01 µM): 61.6% | viability, T/C [9]: 25.5% | viability, T/C [10]: 14.6% | viability, T/C (second compound 1 µM, first compound 0.000316 µM): 72.6% | viability, T/C (second compound 1 µM, first compound 0.001 µM): 77.8% | viability, T/C (second compound 1 µM, first compound 0.00316 µM): 84.1% | viability, T/C (second compound 1 µM, first compound 0.01 µM): 68.3% | viability, T/C [11]: 25.2% | viability, T/C [12]: 14.4%

CC(C)NCC(C(=O)N1CCN(c2ncnc3c2C(C)CC3O)CC1)c1ccc(Cl)cc1 (stereo unspecified) + CCn1c(-c2cc(N3CCN(C)CC3)cnc2C(C)OC)c2c3cc(ccc31)-c1csc(n1)CC(NC(=O)C1CC1C)C(=O)N1CCCC(N1)C(=O)OCC(C)(C)C2
IC50 (curve of first compound, second compound 0.000949 µM): 7690 nM | IC50 (curve of first compound, second compound 0.003 µM): 4360 nM | IC50 (curve of first compound, second compound 0.00949 µM): 1910 nM | IC50 (curve of first compound, second compound 0.03 µM): 1190 nM | IC50 (curve of first compound, second compound 0.0949 µM): 717 nM | IC50 (curve of first compound, second compound 0.3 µM): 360 nM | viability, T/C (second compound 0.000949 µM, first compound 0.0316 µM): 91.9% | viability, T/C (second compound 0.000949 µM, first compound 0.1 µM): 90.3% | viability, T/C (second compound 0.000949 µM, first compound 0.316 µM): 80.9% | viability, T/C (second compound 0.000949 µM, first compound 1 µM): 104% | viability, T/C (second compound 0.000949 µM, first compound 3.16 µM): 69.3% | viability, T/C (second compound 0.000949 µM, first compound 10 µM): 44.3% | viability, T/C (second compound 0.003 µM, first compound 0.0316 µM): 73.9% | viability, T/C (second compound 0.003 µM, first compound 0.1 µM): 82.8% | viability, T/C (second compound 0.003 µM, first compound 0.316 µM): 78.3% | viability, T/C (second compound 0.003 µM, first compound 1 µM): 88% | viability, T/C (second compound 0.003 µM, first compound 3.16 µM): 58% | viability, T/C (second compound 0.003 µM, first compound 10 µM): 29.3% | viability, T/C (second compound 0.00949 µM, first compound 0.0316 µM): 60.9% | viability, T/C (second compound 0.00949 µM, first compound 0.1 µM): 74.3% | viability, T/C (second compound 0.00949 µM, first compound 0.316 µM): 74.4% | viability, T/C (second compound 0.00949 µM, first compound 1 µM): 74.9% | viability, T/C (second compound 0.00949 µM, first compound 3.16 µM): 33.4% | viability, T/C (second compound 0.00949 µM, first compound 10 µM): 19.6% | viability, T/C (second compound 0.03 µM, first compound 0.0316 µM): 101% | viability, T/C (second compound 0.03 µM, first compound 0.1 µM): 103% | viability, T/C (second compound 0.03 µM, first compound 0.316 µM): 94.2% | viability, T/C (second compound 0.03 µM, first compound 1 µM): 52.9% | viability, T/C (second compound 0.03 µM, first compound 3.16 µM): 28.4% | viability, T/C (second compound 0.03 µM, first compound 10 µM): 17.1% | viability, T/C (second compound 0.0949 µM, first compound 0.0316 µM): 106% | viability, T/C (second compound 0.0949 µM, first compound 0.1 µM): 104% | viability, T/C (second compound 0.0949 µM, first compound 0.316 µM): 75.8% | viability, T/C (second compound 0.0949 µM, first compound 1 µM): 39.5% | viability, T/C (second compound 0.0949 µM, first compound 3.16 µM): 18.8% | viability, T/C (second compound 0.0949 µM, first compound 10 µM): 12.7% | viability, T/C (second compound 0.3 µM, first compound 0.0316 µM): 101% | viability, T/C (second compound 0.3 µM, first compound 0.1 µM): 78.6% | viability, T/C (second compound 0.3 µM, first compound 0.316 µM): 55% | viability, T/C (second compound 0.3 µM, first compound 1 µM): 27.2% | viability, T/C (second compound 0.3 µM, first compound 3.16 µM): 17.1% | viability, T/C (second compound 0.3 µM, first compound 10 µM): 10.9%

CC(C)n1nc(-c2ccc3oc(N)nc3c2)c2c(N)ncnc21
viability, T/C (compound 0.000316 µM): 105% [middle of 4 runs] | viability, T/C (compound 0.00316 µM): 98.2% [middle of 4 runs] | viability, T/C (compound 0.0316 µM): 41.3% [middle of 4 runs] | viability, T/C (compound 0.1 µM): 15.5% and 26.6% (2×) and 20% | IC50 (curve of compound): 25.1 nM [middle of 4 runs]

C[C@@H](NC(=O)c1ncnc(N)c1Cl)c1ncc(C(=O)Nc2cc(C(F)(F)F)c(Cl)cn2)s1 + C#Cc1c(F)ccc2cc(O)cc(-c3ncc4c(N5CC6CCC(C5)N6)nc(OCC56CCCN5CC(F)C6)nc4c3F)c12
IC50 [1]: > 10000 nM | IC50 [2]: > 10000 nM | IC50 [3]: > 10000 nM | IC50 [4]: > 10000 nM | IC50 (curve of first compound, second compound 3.16 µM): > 10000 nM | IC50 (curve of first compound, second compound 10 µM): > 10000 nM | viability, T/C [5]: 108% | viability, T/C [6]: 101% | viability, T/C (second compound 0.0316 µM, first compound 0.316 µM): 113% | viability, T/C (second compound 0.0316 µM, first compound 1 µM): 107% | viability, T/C (second compound 0.0316 µM, first compound 3.16 µM): 99% | viability, T/C (second compound 0.0316 µM, first compound 10 µM): 102% | viability, T/C [7]: 94.4% | viability, T/C [8]: 96.2% | viability, T/C (second compound 0.1 µM, first compound 0.316 µM): 93.5% | viability, T/C (second compound 0.1 µM, first compound 1 µM): 103% | viability, T/C (second compound 0.1 µM, first compound 3.16 µM): 92.5% | viability, T/C (second compound 0.1 µM, first compound 10 µM): 97.9% | viability, T/C [9]: 96.9% | viability, T/C [10]: 105% | viability, T/C (second compound 0.316 µM, first compound 0.316 µM): 97.4% | viability, T/C (second compound 0.316 µM, first compound 1 µM): 101% | viability, T/C (second compound 0.316 µM, first compound 3.16 µM): 108% | viability, T/C (second compound 0.316 µM, first compound 10 µM): 98.6% | viability, T/C [11]: 87.7% | viability, T/C [12]: 105% | viability, T/C (second compound 1 µM, first compound 0.316 µM): 102% | viability, T/C (second compound 1 µM, first compound 1 µM): 108% | viability, T/C (second compound 1 µM, first compound 3.16 µM): 106% | viability, T/C (second compound 1 µM, first compound 10 µM): 98.9% | viability, T/C (second compound 3.16 µM, first compound 0.0316 µM): 107% | viability, T/C (second compound 3.16 µM, first compound 0.1 µM): 104% | viability, T/C (second compound 3.16 µM, first compound 0.316 µM): 104% | viability, T/C (second compound 3.16 µM, first compound 1 µM): 106% | viability, T/C (second compound 3.16 µM, first compound 3.16 µM): 111% | viability, T/C (second compound 3.16 µM, first compound 10 µM): 98.3% | viability, T/C (second compound 10 µM, first compound 0.0316 µM): 106% | viability, T/C (second compound 10 µM, first compound 0.1 µM): 91.7% | viability, T/C (second compound 10 µM, first compound 0.316 µM): 107% | viability, T/C (second compound 10 µM, first compound 1 µM): 98% | viability, T/C (second compound 10 µM, first compound 3.16 µM): 107% | viability, T/C (second compound 10 µM, first compound 10 µM): 96.7%
